In brackets after ≈: the same amount, converted by molar mass.
Columns and labels:
[1] = Moisture adsorption/desorption (microbalance, automatic vapor adsorption apparatus); assay type: physicochemical; settings: for Moisture adsorption/desorption: change in weight / stability: crystals about 20 mg, relative humidities 10 to 90% RH
Experimental: Compound (1), compound (a), and salts of compound (a) prepared in Example 1, Referential Example 1, and Comparative Example 1, respectively, were evaluated in terms of moisture adsorption/desorption. Specifically, the amount of water adsorbed on or desorbed from each compound was determined through subjecting crystals (about 20 mg) of each compound to a microbalance (automatic vapor adsorption apparatus) and measuring time-elapsed change in weight at relative humidities (RH) ranging from 10 to 90%.

[2] = Solubility to water (37° C.); assay type: physicochemical; settings: for Water-solubility (in words) / solubility: 37° C., water; for solubility: Table 1
[3] = target: VLA-4 (Homo sapiens, UniProt P05556+P13612); assay: VLA-4 inhibitory activity; assay type: binding; settings: compared with compound (a)
Sequence of VLA-4 (P13612 34-1032): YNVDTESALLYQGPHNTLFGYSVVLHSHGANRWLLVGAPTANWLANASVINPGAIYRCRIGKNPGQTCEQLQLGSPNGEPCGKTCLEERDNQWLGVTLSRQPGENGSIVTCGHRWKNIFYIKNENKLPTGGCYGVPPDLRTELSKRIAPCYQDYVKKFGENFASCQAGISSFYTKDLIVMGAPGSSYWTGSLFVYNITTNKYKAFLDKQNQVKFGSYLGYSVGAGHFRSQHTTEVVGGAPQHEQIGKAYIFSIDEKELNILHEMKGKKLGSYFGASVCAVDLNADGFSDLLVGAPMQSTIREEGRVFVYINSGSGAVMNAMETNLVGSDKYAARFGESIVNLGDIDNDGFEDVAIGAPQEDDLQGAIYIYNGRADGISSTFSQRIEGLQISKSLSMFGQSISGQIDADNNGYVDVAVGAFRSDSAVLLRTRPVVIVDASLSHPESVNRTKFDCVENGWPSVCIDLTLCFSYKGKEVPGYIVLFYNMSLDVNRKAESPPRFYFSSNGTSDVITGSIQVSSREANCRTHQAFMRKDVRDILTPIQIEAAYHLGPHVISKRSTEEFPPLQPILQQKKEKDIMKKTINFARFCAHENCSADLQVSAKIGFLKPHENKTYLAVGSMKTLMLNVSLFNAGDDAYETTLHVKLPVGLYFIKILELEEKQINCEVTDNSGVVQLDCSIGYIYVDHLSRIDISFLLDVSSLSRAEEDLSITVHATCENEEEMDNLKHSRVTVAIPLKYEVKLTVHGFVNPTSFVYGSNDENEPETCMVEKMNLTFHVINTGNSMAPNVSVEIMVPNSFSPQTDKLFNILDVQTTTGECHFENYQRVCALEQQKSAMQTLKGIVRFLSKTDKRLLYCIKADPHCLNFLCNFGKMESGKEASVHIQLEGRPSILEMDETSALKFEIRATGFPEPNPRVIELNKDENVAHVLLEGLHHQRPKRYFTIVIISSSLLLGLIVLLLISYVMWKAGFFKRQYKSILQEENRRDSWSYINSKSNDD
Sequence of VLA-4 (P05556 21-798): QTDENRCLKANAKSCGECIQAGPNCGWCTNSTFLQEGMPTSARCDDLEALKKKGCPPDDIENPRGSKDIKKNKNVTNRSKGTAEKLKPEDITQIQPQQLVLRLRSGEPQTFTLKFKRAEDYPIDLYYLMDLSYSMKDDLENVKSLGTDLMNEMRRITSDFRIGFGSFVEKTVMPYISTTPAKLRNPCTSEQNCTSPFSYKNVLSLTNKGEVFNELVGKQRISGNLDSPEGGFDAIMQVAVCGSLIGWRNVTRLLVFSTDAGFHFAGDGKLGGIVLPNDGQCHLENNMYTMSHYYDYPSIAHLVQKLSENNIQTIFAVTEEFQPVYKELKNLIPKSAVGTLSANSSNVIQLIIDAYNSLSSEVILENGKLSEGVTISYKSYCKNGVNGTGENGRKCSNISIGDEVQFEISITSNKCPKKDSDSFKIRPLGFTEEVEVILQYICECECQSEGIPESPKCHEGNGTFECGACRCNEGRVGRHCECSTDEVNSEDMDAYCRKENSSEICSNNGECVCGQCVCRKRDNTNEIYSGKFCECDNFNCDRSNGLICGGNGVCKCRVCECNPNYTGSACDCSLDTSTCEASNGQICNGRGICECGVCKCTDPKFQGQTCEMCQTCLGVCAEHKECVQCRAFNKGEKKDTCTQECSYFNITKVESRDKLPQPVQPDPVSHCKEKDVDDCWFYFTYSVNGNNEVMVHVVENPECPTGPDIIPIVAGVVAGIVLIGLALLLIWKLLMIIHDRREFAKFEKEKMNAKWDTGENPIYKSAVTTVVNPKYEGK

Row | Water-solubility (in words) [2] | solubility [2] [µg/mL] | VLA-4 inhibitory activity [3] | Storage stability (moisture adsorption/desorption property) of crystal forms ([1]; Type-I and Type-II crystals of compound (1), FIG. 5) | Water Solubility ([2]; crystal forms of compound (1), manner similar to Test Example 2, Table 3) [µg/mL] | Structure (SMILES) | Moisture adsorption/desorption: change in weight / stability [1]
1 | considerably low water-solubility | 0.653 (≈ 1.06 µM) | – | – | – | CO[C@H]1C[C@@H](CO[C@H]2CC[C@H](C(=O)O)CC2)N(C(=O)Cc2cc(Cl)c(NC(=O)c3cn(C)c4ccccc34)cc2Cl)C1 [Compound (a), trans-4-[1-[2,5-dichloro-4-[(1-methyl-1H-3-indolylcarbonyl)amino]phenylacetyl]-(4S)-methoxy-(2S)-pyrrolidinylmethoxy]cyclohexanecarboxylic acid, reference compound] | change in weight at 40 to 60% RH
2 | very high water-solubility | > 1000 | comparable to that of compound (a) | – | – | CO[C@H]1C[C@@H](CO[C@H]2CC[C@H](C(=O)[O-])CC2)N(C(=O)Cc2cc(Cl)c(NC(=O)c3cn(C)c4ccccc34)cc2Cl)C1.[Na+] [Compound (1), sodium trans-4-[1-[2,5-dichloro-4-[(1-methyl-1H-3-indolylcarbonyl)amino]phenylacetyl]-(4S)-methoxy-(2S)-pyrrolidinylmethoxy]cyclohexanecarboxylate pentahydrate] | no change in weight under typical humidity conditions
3 | – | – | – | good storage stability | >1000 | CO[C@H]1C[C@@H](CO[C@H]2CC[C@H](C(=O)[O-])CC2)N(C(=O)Cc2cc(Cl)c(NC(=O)c3cn(C)c4ccccc34)cc2Cl)C1.[Na+] [Type-I] | –
